Measured values as given in US7855191B2, “Agent having a destructive effect on malignant tumors and method for the production thereof” (C.Y.L. Pharmazeutika GmbH, priority 2002, dated 2010).

What was measured:
[1] = Compatibility of selenium compounds with alpha-ketoglutaric acid in the preparation; assay type: physicochemical; conditions: for reaction / compatibility with alpha-ketoglutaric acid: on addition to the preparation of EP 326826 B1
Experimental: Thus initially the research was carried out by the addition of selenium in the form of selenite. […] Attempts were made to suppress this redox reaction by incorporating the selenium in organic compounds. As such a compound, finally seleno-methionine was selected. […] However, with the addition of this compound as a complement to the composition of European Patent 326826 B1 there is a danger that this substance will be incorporated into body proteins, and effect which might reduce the desired effect of the N-acetyl-seleno-L-methionine or cause the effect of that compound to be completely lost.

mammary carcinoma = conditions: rats with 1-methyl-1-nitro urea induced mammary cancer; cited from earlier work
malignant brain tumors = conditions: cited from earlier work

Row | Structure (SMILES) | reaction / compatibility with alpha-ketoglutaric acid [1] | density of the intra tumoral microvessels in the mammary carcinoma (mammary carcinoma) | general well-being of the patients (malignant brain tumors; manifested by erythrocyte number, hemoglobin value, thrombocyte count) | patients who felt a reduction in unpleasant side effects (malignant brain tumors; patients with malignant brain tumors) [%] | Maillard reaction with ketoglutaric acid ([1]; especially at the higher temperatures of heat sterilization)
1 | O=[Se]([O-])[O-].[Na+].[Na+] [selenite, Na-selenite] | amorphous selenium precipitated out | significantly reduced | improvement in the general well-being | 76 | 
2 | C[Se]CC[C@H](N)C(=O)O [seleno-methionine] | does not react with the alphaketoglutaric acid |  |  |  | undergoes a Maillard reaction with the ketoglutaric acid
